Measured values taken from US10421755B2, “Salts of aza-bicyclic di-aryl ethers and methods to make them or their precursors” (Novartis AG, priority 2011, dated 2019).

Experiments:
[1] = Loss on drying / initial water content; format: physicochemical; set-up: Initial water content: unit not given here
[2] = Oral bioavailability and brain penetration in mice; format: in vivo
Procedure: Assay: Compounds were orally (30 μmol/kg) administered. Male mice (30-35 g, OF1/ICstrain) were sacrificed at indicated time points after oral administration. Trunk-blood was collected in EDTA-containing tubes and the brain was removed and immediately frozen on dry ice. To 100 μl plasma 10 μl internal standard (1.0 μmol of a compound with solubility and ionization properties similar to test compounds) was added and extracted three times with 500 μl dichloromethane. The combined extracts were then dried under a stream of nitrogen and re-dissolved in 100 μl acetonitrile/water (70% acetonitrile). Brains were weighed and homogenized in water (1:5 w/v). Two 100 μl aliquots of each homogenate+10 μl of internal standard (same standard as used for the plasma samples) were extracted three times with 500 μl dichloromethane and further processed as the plasma samples. Samples were separated on Beckmann high-performance liquid chromatography equipment system with an autosampler (Gilson 233XL). A 10 min linear gradient (10-70%) of acetonitrile containing 0.5% (v/v) formic acid was used to elute the compounds from Nucleosil CC-125/2 C18 reversed phase (Machery&Nagel) column.
The limit of detection (LOD), defined as the lowest concentration of the extracted standard sample with a signal to noise ratio of ˜3.

[3] = target: T1, human α7-nAChR (Homo sapiens, UniProt P36544); test: functional assay (FLIPR, Fluo-4 calcium) using GH3 cells that recombinantly expressed human α7-nAChR; format: cell-based
T1 construct: expressed in transfected cells; host or cells: GH3 cells (rat pituitary line)
Procedure: Assay: To assess α7-nAChR activity, a functional assay was employed using GH3 cells that recombinantly expressed human α7-nAChR. 40000 cells per well were seeded 48 h prior to the experiment on black 96-well plates (Costar) and incubated at 37° C. in a humidified atmosphere (5% CO2/95% air). On the day of the experiment, medium was removed by flicking the plates and replaced with 0.1 ml growth medium containing 0.002 mM Fluo-4, (Molecular Probes) in the presence of 2.5 mM probenecid (Sigma). The cells were incubated at 37° C. in a humidified atmosphere (5% CO2/95% air) for 1 h. Plates were flicked to remove excess of Fluo-4, washed twice with Hepes-buffered salt solution (HBSS, in mM: NaCl 130, KCl 5.4, CaCl2 2, MgSO4 0.8, NaH2PO4 0.9, glucose 25, Hepes 20, pH 7.4; HBS) and refilled with 0.1 ml of HBS containing antagonist when appropriate. The incubation in the presence of the antagonist lasted 3-5 minutes. Plates were placed in the cell plate stage of a FLIPR device (fluorimetric imaging plate reader, Molecular Devices, Sunnyvale, Calif., USA). After recording of the baseline (laser: excitation 488 nm at 1 W, CCD camera opening of 0.4 seconds) the agonists (0.05 ml) were added to the cell plate using the FLIPR 96-tip pipettor while simultaneously recording the fluorescence. […]

[4] = test system: mice; test: Social Recognition Test in mice; format: in vivo; details: oral, dose 0.3 mg/kg, familiar partner at 24 h vs time 0
Procedure: Assay: Social interactions between two experimental animals are influenced by their degree of familiarity: the better they know each other, the less time they spend on mutual scrutiny at each meeting. […] Memory enhancing agents (i.e. oxiracetam) facilitate learning to the extent that the previously met (familiar) partner is still remembered after 24 h, whereas in vehicle treated control animals the memory usually fades after less than 1 hour (Thor and Holloway, 1982) or after 2-3 hours.
Baseline-test: Pairs consisting of one adult and one young mouse were assigned at random to the experimental and control groups. In each pair only the adult mouse was orally treated 1 hour before the trial with either vehicle or the test compound. The duration of active contacts of the adult mouse with the young mouse was manually recorded over a period of 3 min, including the following behavioural, approach-related items: sniffing, nosing, grooming, licking, pawing and playing, anogenital exploration and orientation toward the young mouse; orientation, thereby, was defined as tip of nose of the adult mouse less than approximately 1 cm distant from the young mouse's body. […]

[5] = Pharmacokinetics in rats after oral administration; format: in vivo, Wistar rats; details: male, Wistar, rat, in vivo, po, 10 mg/kg; for Tmax: Tmax (h)
Procedure: If a salt forming agent is used (e.g. fumarate), a corresponding higher amount of the salt will be used to achieve the intended dosing.
Both compounds were dissolved in Klucel™ (0.5% in water) and were orally administered by gavage (5 ml/kg) to conscious rats (n=8, cross-over design).
K3-EDTA blood (˜0.2 ml) was collected by puncture of a sublingual vein under light isoflurane anesthesia at the following time points: 0.25, 0.5, 1, 2, 3, 4, 6, 8, 24 h post dose. Immediately after sampling, blood samples were put on ice and were processed to plasma by centrifugation at 4° C. within 15 min after sampling (1000 g, 10 min, 4° C.) to obtain ˜100 μl plasma/sample. All plasma samples were stored at −80° C. until analysis. Since the PK study was performed in a cross-over design, a recovery period of approximately 2 weeks took place before the next treatment/blood sampling was performed.
The determination of compounds in plasma was done by LC-MS/MS using electrospray ionization.

[6] = target: T2, human neuronal nAChR α4β2 (Homo sapiens, UniProt P17787+P43681); test: similar functional assay using a human epithelial cell line stably expressing the human α4β2 subtype; format: cell-based
T2 construct: expressed in transfected cells
Procedure: To assess the activity of the compound of the invention on the human neuronal nAChR α4β2, a similar functional assay is carried out using a human epithelial cell line stably expressing the human α4β2 subtype (Michelmore et al., Naunyn-Schmiedeberg's Arch. Pharmacol. (2002) 366, 235).

T2 sequence (P43681 29-627 limits assumed): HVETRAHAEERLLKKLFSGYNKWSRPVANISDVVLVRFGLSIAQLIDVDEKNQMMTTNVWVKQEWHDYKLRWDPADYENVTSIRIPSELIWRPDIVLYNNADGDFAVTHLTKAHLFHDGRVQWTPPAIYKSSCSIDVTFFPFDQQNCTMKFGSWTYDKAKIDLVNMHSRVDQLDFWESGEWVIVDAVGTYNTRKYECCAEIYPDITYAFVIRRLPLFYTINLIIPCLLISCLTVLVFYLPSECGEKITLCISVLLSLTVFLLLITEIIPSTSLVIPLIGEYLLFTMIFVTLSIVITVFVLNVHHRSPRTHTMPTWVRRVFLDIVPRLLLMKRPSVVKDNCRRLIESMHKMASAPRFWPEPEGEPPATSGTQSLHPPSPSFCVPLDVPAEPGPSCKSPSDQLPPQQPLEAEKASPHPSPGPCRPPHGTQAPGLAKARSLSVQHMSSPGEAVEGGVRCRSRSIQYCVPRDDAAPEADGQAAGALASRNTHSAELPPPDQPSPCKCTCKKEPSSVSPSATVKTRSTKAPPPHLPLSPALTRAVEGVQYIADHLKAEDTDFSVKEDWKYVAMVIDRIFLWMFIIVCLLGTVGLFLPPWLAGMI
T2 sequence (P17787 26-502): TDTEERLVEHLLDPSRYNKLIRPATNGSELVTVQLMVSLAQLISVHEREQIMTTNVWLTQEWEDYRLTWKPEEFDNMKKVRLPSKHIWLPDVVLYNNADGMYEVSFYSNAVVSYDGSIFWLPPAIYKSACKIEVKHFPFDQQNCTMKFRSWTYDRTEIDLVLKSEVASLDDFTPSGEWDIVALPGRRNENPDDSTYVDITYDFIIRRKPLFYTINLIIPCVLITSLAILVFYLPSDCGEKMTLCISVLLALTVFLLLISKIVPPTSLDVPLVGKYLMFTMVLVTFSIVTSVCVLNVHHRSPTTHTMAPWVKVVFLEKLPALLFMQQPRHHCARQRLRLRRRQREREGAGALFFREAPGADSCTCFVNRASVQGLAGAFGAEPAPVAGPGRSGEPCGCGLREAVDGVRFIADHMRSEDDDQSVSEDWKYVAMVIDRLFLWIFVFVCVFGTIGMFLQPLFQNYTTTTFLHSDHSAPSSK
T1 sequence (P36544 23-502): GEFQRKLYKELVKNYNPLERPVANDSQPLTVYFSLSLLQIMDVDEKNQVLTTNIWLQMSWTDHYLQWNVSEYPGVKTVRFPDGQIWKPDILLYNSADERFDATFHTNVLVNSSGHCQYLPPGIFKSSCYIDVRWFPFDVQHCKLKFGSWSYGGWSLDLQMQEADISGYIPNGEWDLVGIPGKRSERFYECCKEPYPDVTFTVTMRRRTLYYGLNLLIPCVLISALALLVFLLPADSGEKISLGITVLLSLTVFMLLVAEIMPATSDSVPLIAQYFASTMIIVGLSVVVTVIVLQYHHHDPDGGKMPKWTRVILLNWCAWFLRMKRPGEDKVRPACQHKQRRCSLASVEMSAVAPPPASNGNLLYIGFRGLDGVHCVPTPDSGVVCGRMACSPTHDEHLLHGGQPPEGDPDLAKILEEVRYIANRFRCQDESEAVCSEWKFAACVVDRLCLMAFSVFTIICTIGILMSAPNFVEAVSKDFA

Compound: Cc1ccc(-c2ccc(O[C@H]3CN4CCC3CC4)cn2)cc1 [Compound A, (R)-3-(6-(4-methylphenyl)-pyridin-3-yloxy)-1-aza-bicyclo[2.2.2]octane]
- Loss on drying (LOD) of a sample [1]: 0.1%
- Initial water content ([1]; comparison table, Example 7): 0.1
- Brain (pmoles/g ± SD) ([2]; 30 μmol/kg p.o., 0.25 hour): 4631 ± 1717 pmol/g
- Brain (pmoles/g ± SD) ([2]; 30 μmol/kg p.o., 0.5 hour): 11430 ± 3441 pmol/g
- Brain (pmoles/g ± SD) ([2]; 30 μmol/kg p.o., 1 hour): 14948 ± 4716 pmol/g
- Brain (pmoles/g ± SD) ([2]; 30 μmol/kg p.o., 4 hour): 1272 ± 715 pmol/g
- Brain (pmoles/g ± SD) ([2]; 30 μmol/kg p.o., 8 hour): 58 ± 27 pmol/g
- time for which brain concentration is beyond (or at least equal) to the EC50 at the α7-nAChR ([2]; acute oral dose of 30 μmol/kg): at least 4 hours
- concentration at 0.25 h ([2]; male, OF1/IC, mouse, plasma, po, 30 μmol/kg p.o., 0.25 hour, read-out: Plasma (pmoles/ml ± SD)): 573 ± 234 pmol/mL
- concentration at 0.5 h ([2]; male, OF1/IC, mouse, plasma, po, 30 μmol/kg p.o., 0.5 hour, read-out: Plasma (pmoles/ml ± SD)): 559 ± 143 pmol/mL
- concentration at 1 h ([2]; male, OF1/IC, mouse, plasma, po, 30 μmol/kg p.o., 1 hour, read-out: Plasma (pmoles/ml ± SD)): 322 ± 135 pmol/mL
- concentration at 4 h ([2]; male, OF1/IC, mouse, plasma, po, 30 μmol/kg p.o., 4 hour, read-out: Plasma (pmoles/ml ± SD)): 20 ± 16 pmol/mL
- concentration at 8 h ([2]; male, OF1/IC, mouse, plasma, po, 30 μmol/kg p.o., 8 hour, read-out: Plasma (pmoles/ml ± SD)): 3.4 ± 0.8 pmol/mL
- α7-nAChR activity Efficacy compared to epibatidine (100%) ([3]; Emax relative to epibatidine response): 75%
- EC50 ([3]; GH3 cells, human α7-nAChR, read-out: α7-nAChR activity Potency EC50): 35 nM
- Reduction in time scrutinizing in % ± SEM at 24 h [4]: 36 ± 6%
- Cmax/Dose (ng/mL)/(mg/kg), Mean All [5]: 11.3 (ng/mL)/(mg/kg)
- AUC(0-t) ([5]; AUClast (h · ng/mL), Mean All): 200 ± 62 ng·h/mL
- Cmax ([5]; Cmax (ng/mL), Mean All): 112 ± 40 ng/mL
- Tmax [5]: 15 min
- Tmax ([5]; all rats): 15 to 30 min
- half-life ([5]; T½ (h), Mean All): 310 min
- EC50 [6]: > 100 µM
- IC50 [6]: 5.6 µM
